Data as given in patent US11725012B2, “Imidazo[1,5-a]pyrazine derivatives as PI3K δ inhibitors” (priority 2016, dated 2023).

How the values were obtained:
Assay type in all cases: biochemical
[1] = target: PI3K (p110β/p85α) (Homo sapiens, UniProt P42338); experiment: PI3Kβ ADP-Glo kinase assay; settings: read-out: PI3Kβ Enzyme activity IC50
[2] = target: recombinant PI3K (p110α/p85α) (Homo sapiens, UniProt P42336); experiment: PI3Kα ADP-Glo kinase assay; settings: read-out: PI3Kα Enzyme activity IC50
Chain of recombinant PI3K (p110α/p85α) (P42336 whole entry): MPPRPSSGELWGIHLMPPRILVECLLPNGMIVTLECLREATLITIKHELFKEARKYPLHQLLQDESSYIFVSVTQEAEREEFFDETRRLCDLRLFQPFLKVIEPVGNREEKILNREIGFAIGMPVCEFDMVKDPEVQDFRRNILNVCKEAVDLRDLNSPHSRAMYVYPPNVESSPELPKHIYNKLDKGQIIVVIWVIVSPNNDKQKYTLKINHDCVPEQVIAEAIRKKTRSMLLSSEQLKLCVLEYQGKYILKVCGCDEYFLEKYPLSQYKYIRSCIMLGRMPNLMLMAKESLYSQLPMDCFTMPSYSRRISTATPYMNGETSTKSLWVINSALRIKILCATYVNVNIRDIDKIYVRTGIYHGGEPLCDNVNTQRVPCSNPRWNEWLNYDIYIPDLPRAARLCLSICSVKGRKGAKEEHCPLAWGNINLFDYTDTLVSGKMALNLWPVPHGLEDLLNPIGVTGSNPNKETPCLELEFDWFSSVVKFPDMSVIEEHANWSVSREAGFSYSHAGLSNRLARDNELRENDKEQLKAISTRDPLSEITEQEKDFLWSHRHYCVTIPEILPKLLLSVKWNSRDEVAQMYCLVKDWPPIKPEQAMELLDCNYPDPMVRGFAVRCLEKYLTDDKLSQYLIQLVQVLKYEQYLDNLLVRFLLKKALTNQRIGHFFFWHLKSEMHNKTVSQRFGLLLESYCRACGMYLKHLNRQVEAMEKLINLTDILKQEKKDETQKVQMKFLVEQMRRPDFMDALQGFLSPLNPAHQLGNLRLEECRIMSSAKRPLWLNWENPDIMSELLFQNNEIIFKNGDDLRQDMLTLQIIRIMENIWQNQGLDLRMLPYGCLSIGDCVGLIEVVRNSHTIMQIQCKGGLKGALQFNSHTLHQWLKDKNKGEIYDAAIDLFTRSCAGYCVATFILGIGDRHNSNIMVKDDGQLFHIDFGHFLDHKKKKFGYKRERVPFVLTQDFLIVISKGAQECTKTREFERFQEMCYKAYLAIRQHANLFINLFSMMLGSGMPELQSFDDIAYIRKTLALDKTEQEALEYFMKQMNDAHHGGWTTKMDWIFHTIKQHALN
Chain of recombinant PI3K (p110α/p85α) (P27986 whole entry partner): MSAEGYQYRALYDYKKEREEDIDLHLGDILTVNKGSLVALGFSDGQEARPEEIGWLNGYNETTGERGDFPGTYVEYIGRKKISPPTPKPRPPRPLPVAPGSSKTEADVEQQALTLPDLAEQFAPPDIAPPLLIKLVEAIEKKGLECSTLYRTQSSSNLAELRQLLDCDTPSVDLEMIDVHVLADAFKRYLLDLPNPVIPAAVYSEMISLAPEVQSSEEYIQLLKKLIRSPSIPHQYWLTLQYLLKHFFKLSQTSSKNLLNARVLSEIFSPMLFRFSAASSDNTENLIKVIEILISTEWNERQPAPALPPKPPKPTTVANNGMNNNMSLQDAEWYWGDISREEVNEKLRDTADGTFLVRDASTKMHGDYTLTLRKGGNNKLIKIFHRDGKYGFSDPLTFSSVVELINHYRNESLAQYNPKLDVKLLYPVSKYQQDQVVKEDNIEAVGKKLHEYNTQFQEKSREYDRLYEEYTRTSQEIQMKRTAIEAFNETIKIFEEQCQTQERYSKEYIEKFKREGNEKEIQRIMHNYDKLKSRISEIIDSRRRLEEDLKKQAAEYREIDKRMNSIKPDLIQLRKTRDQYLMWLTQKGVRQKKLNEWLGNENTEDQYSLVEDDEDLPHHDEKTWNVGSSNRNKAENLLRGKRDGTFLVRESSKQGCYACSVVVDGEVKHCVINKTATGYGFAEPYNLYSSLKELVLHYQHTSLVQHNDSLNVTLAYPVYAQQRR

[3] = target: recombinant PI3K (p110δ/p85α) (Homo sapiens, UniProt O00329); experiment: PI3Kδ ADP-Glo kinase assay; settings: read-out: PI3Kδ Enzyme activity IC50
Chain of recombinant PI3K (p110δ/p85α) (O00329 whole entry): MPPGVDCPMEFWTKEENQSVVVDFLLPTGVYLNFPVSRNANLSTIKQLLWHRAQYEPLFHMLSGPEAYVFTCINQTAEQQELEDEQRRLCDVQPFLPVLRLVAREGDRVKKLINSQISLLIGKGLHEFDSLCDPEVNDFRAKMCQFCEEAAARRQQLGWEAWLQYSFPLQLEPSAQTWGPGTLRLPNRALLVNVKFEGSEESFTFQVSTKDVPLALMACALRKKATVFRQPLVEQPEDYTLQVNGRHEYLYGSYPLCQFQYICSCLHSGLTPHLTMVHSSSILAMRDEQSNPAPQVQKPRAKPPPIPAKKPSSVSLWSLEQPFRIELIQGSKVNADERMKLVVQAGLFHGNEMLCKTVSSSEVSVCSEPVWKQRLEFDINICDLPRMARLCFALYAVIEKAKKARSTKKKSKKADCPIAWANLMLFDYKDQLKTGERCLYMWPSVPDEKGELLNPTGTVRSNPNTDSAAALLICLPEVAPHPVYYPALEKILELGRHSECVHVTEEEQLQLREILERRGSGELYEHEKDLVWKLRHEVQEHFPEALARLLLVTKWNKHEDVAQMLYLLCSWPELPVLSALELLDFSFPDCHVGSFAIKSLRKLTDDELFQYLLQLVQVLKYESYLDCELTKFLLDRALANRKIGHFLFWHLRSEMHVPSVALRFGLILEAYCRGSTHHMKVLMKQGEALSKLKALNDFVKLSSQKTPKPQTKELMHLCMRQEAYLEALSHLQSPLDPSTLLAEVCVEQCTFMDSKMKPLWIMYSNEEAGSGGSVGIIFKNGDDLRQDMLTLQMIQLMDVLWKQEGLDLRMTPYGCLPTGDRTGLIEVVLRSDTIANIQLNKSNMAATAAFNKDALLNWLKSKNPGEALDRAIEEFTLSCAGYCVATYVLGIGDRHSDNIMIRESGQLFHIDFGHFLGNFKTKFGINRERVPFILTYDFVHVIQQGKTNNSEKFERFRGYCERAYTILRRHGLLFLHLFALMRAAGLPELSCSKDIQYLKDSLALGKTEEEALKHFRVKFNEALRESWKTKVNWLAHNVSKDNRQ
Chain of recombinant PI3K (p110δ/p85α) (P27986 whole entry partner): as the sequence (P27986 whole entry partner) above
How it was run: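 ADP-Glo luminescence with recombinant p110δ/p85α and lipid kinase substrate. Compound serial dilutions preincubated 0.5 hr, ATP added, reaction 1 hr at room temperature, then ATP depletion and detection steps. IC50 from a four-parameter logistic fit of residual activity.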

[4] = target: PI3K (p110γ) (Homo sapiens, UniProt P48736); experiment: PI3Kγ ADP-Glo kinase assay; settings: read-out: PI3Kγ Enzyme activity IC50
Chain of PI3K (p110γ) (P48736 whole entry): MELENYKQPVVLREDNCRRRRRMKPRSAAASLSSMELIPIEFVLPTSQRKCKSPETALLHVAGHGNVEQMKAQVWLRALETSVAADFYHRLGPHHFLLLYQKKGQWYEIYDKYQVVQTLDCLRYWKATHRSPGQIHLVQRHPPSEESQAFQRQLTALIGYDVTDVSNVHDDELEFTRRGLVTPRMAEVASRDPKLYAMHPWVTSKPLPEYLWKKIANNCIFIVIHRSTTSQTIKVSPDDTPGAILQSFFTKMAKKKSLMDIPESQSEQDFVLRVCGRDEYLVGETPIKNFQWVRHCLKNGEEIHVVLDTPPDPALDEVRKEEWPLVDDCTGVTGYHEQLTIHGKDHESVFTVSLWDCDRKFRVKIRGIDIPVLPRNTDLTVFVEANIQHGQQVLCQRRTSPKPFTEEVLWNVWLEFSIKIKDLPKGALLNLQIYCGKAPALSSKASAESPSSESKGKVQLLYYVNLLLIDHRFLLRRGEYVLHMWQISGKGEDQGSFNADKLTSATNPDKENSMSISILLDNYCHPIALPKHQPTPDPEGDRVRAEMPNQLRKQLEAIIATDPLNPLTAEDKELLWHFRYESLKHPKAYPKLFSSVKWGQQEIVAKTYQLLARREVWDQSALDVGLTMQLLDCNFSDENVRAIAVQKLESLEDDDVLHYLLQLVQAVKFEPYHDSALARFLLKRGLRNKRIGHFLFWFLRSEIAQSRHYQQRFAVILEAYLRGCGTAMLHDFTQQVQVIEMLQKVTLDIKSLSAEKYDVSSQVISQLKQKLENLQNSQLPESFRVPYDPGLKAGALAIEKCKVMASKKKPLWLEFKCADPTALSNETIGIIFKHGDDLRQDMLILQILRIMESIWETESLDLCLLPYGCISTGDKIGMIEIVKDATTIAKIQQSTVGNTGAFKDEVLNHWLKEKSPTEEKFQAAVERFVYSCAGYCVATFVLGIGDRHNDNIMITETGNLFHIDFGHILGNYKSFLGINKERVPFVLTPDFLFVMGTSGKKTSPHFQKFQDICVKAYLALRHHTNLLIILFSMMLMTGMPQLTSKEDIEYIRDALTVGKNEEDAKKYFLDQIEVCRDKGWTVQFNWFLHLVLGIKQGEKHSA

Chain of PI3K (p110β/p85α) (P42338 whole entry): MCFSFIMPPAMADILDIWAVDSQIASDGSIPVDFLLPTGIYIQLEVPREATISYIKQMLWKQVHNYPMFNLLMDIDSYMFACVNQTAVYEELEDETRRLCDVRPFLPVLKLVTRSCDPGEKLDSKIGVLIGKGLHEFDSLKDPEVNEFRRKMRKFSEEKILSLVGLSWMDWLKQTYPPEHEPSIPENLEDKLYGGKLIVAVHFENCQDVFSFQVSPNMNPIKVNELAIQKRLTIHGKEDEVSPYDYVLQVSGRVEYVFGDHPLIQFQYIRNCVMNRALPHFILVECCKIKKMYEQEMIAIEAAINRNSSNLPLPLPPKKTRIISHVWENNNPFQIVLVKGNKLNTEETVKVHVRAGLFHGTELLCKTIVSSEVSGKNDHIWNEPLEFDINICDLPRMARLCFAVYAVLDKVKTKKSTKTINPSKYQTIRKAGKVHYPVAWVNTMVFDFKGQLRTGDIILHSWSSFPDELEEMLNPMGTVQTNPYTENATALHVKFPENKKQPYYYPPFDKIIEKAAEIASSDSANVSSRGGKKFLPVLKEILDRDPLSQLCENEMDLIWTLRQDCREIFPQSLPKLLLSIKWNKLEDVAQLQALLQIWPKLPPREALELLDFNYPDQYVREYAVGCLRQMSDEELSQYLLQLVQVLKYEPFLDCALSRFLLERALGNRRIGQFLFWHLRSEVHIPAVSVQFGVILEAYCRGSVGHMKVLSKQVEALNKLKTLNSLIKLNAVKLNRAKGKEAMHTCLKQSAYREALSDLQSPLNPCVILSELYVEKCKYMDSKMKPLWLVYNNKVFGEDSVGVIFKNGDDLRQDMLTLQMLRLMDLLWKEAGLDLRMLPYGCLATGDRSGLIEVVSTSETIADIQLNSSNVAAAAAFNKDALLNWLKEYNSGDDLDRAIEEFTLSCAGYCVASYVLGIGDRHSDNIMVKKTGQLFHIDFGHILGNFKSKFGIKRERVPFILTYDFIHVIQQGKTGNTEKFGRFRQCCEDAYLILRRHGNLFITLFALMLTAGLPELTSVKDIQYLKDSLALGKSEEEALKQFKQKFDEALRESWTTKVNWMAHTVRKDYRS
Chain of PI3K (p110β/p85α) (P27986 whole entry partner): as the sequence (P27986 whole entry partner) above

Row | SMILES | IC50 [1] [nM] | IC50 [2] [nM] | IC50 [3] [nM] | IC50 [4] [nM]
1 | CCOc1c(C(C)c2nc(Cl)c3c(N)nccn23)cc(Cl)c(C)c1-c1ccc(OC)cc1 (stereo not drawn) [Compound 45, 1-chloro-3-(1-(5-chloro-2-ethoxy-4′-methoxy-6-methyl-[1,1′-biphenyl]-3-yl)ethyl)imidazo[1,5-a]pyrazin-8-amine] | 930 | 1100 | 17 | 1200
2 | CCOc1c(C(C)c2nc(Cl)c3c(N)nccn23)cc(Cl)c(C)c1C1CNC(=O)C1 (stereo not drawn) [Compound 46, 4-(3-(1-(8-amino-1-chloroimidazo[1,5-a]pyrazin-3-yl)ethyl)-5-chloro-2-ethoxy-6-methylphenyl)pyrrolidin-2-one] | 470 | 5600 | 0.7 | 920
3 | CC(C)Oc1c(C(C)c2nc(Cl)c3c(N)nccn23)cc(Cl)c(F)c1C1CNC(=O)C1 (stereo not drawn) [Compound 48, 4-(3-(1-(8-amino-1-chloroimidazo[1,5-a]pyrazin-3-yl)ethyl)-5-chloro-6-fluoro-2-isopropoxyphenyl)pyrrolidin-2-one] | 580 | 540 | 0.42 | 530
4 | CCOc1cc(C)c(Cl)cc1C(C)c1nc(Br)c2c(N)nccn12 (stereo not drawn) [Compound 50, 1-bromo-3-(1-(5-chloro-2-ethoxy-4-methylphenyl)ethyl)imidazo[1,5-a]pyrazin-8-amine] | 670 | 36000 | 17 | 2600
5 | CCOc1c(C(C)c2nc(Cl)c3c(N)nccn23)cc(Cl)c(C)c1N1CCOCC1 (stereo not drawn) [Compound 51, 1-chloro-3-(1-(5-chloro-2-ethoxy-4-methyl-3-morpholinophenyl)ethyl)imidazo[1,5-a]pyrazin-8-amine] | 2700 | 2900 | 1.6 | 1700
6 | CC(c1cc(Cl)c(C#N)c(=O)n1-c1ccccc1)n1cc(Br)c2c(N)ncnc21 (stereo not drawn) [Compound 54, 6-(1-(4-amino-5-bromo-7H-pyrrolo[2,3-d]pyrimidin-7-yl)ethyl)-4-chloro-2-oxo-1-phenyl-1,2-dihydropyridine-3-carbonitrile] | 1700 | 29000 | 15 | 4200
7 | COc1cc(C(C)n2cc(Br)c3c(N)ncnc32)n(-c2ccccc2)c(=O)c1C#N (stereo not drawn) [Compound 57, 6-(1-(4-amino-5-bromo-7H-pyrrolo[2,3-d]pyrimidin-7-yl)ethyl)-4-methoxy-2-oxo-1-phenyl-1,2-dihydropyridine-3-carbonitrile] | 1240 | 83000 | 20 | 1900
8 | Cc1nc([C@@H](C)c2cc(Cl)c(F)c(-c3ccc(C(F)(F)F)nc3)c2OC(C)C)n2ccnc(N)c12 [Compound 58, (S)-3-(1-(5-chloro-4-fluoro-2-isopropoxy-3-(6-(trifluoromethyl)pyridin-3-yl)phenyl)ethyl)-1-methylimidazo[1,5-a]pyrazin-8-amine] | 17000 | 14000 | 5.6 | 13000
9 | Cc1nc(C(C)c2cc(Cl)c(F)c(-c3ccc(C#N)nc3)c2OC(C)C)n2ccnc(N)c12 (stereo not drawn) [Compound 59, 5-(3-(1-(8-amino-1-methylimidazo[1,5-a]pyrazin-3-yl)ethyl)-5-chloro-6-fluoro-2-isopropoxyphenyl)picolinonitrile] | 3500 | 10000 | 2.5 | 6300
10 | Cc1nc([C@@H](C)c2cc(Cl)c(F)c(-c3ccc(C(N)=NO)nc3)c2OC(C)C)n2ccnc(N)c12 [Compound 60] | 4200 | 4300 | 1.6 | 2800
11 | Cc1nc([C@@H](C)c2cc(Cl)c(F)c(-c3ccc(C(=O)N4CCC(O)CC4)nc3)c2OC(C)C)n2ccnc(N)c12 [Compound 61, (S)-(5-(3-(1-(8-amino-1-methylimidazo[1,5-a]pyrazin-3-yl)ethyl)-5-chloro-6-fluoro-2-isopropoxyphenyl)pyridin-2-yl)(4-hydroxypiperidin-1-yl)methanone] | 6100 | 2900 | 0.58 | 3800
12 | Cc1nc([C@@H](C)c2cc(Cl)c(F)c(-c3ccc(C(=O)NCCO)nc3)c2OC(C)C)n2ccnc(N)c12 [Compound 62, (S)-5-(3-(1-(8-amino-1-methylimidazo[1,5-a]pyrazin-3-yl)ethyl)-5-chloro-6-fluoro-2-isopropoxyphenyl)-N-(2-hydroxyethyl)picolinamide] | 3600 | 5200 | 0.82 | 2600
13 | Cc1nc([C@@H](C)c2cc(Cl)c(F)c(-c3ccc(C(=O)N4CC(O)C4)nc3)c2OC(C)C)n2ccnc(N)c12 [Compound 63, (S)-(5-(3-(1-(8-amino-1-methylimidazo[1,5-a]pyrazin-3-yl)ethyl)-5-chloro-6-fluoro-2-isopropoxyphenyl)pyridin-2-yl)(3-hydroxyazetidine-1-yl)methanone] | 2300 | 2600 | 0.56 | 2400
14 | Cc1nc([C@@H](C)c2cc(Cl)c(F)c(-c3ccc(C(=O)N4CC[C@@H](O)C4)nc3)c2OC(C)C)n2ccnc(N)c12 [Compound 64, (5-(3-((S)-1-(8-amino-1-methylimidazo[1,5-a]pyrazin-3-yl)ethyl)-5-chloro-6-fluoro-2-isopropoxyphenyl)pyridin-2-yl)((R)-3-hydroxypyrrolidin-1-yl)methanone] | 1600 | 1400 | 0.37 | 2100
15 | Cc1nc([C@@H](C)c2cc(Cl)c(F)c(-c3ccc(C(=O)N4CC(C(=O)O)C4)nc3)c2OC(C)C)n2ccnc(N)c12 [Compound 65, (S)-1-(5-(3-(1-(8-amino-1-methylimidazo[1,5-a]pyrazin-3-yl)ethyl)-5-chloro-6-fluoro-2-isopropoxyphenyl)picolinoyl)azetidine-3-carboxylic Acid] | 1200 | 5400 | 0.71 | 1600
16 | Cc1nc([C@@H](C)c2cc(Cl)c(F)c(-c3ccc(C(=O)NC4(CO)CC4)nc3)c2OC(C)C)n2ccnc(N)c12 [Compound 66, (S)-5-(3-(1-(8-amino-1-methylimidazo[1,5-a]pyrazin-3-yl)ethyl)-5-chloro-6-fluoro-2-isopropoxyphenyl)-N-(1-(hydroxymethyl)cyclopropyl)picolinamide] | 3400 | 4100 | 0.72 | 2600
17 | Cc1nc([C@@H](C)c2cc(Cl)c(F)c(-c3ccc(C(=O)N4CCC[C@H]4C(=O)O)nc3)c2OC(C)C)n2ccnc(N)c12 [Compound 67, (5-(3-((S)-1-(8-amino-1-methylimidazo[1,5-a]pyrazin-3-yl)ethyl)-5-chloro-6-fluoro-2-isopropoxyphenyl)picolinoyl)-L-proline] | 460 | 5200 | 0.47 | 1200
18 | Cc1nc([C@@H](C)c2cc(Cl)c(F)c(-c3ccc(C(=O)NC4(C(=O)O)CC4)nc3)c2OC(C)C)n2ccnc(N)c12 [Compound 68, (S)-1-(5-(3-(1-(8-amino-1-methylimidazo[1,5-a]pyrazin-3-yl)ethyl)-5-chloro-6-fluoro-2-isopropoxyphenyl)picolinamido)cyclopropane-1-carboxylic Acid] | 400 | 3400 | 0.33 | 960
19 | Cc1nc([C@@H](C)c2cc(Cl)c(F)c(-c3ccc(C(=O)N4CCC[C@@H]4C(=O)O)nc3)c2OC(C)C)n2ccnc(N)c12 [Compound 69, (5-(3-((S)-1-(8-amino-1-methylimidazo[1,5-a]pyrazin-3-yl)ethyl)-5-chloro-6-fluoro-2-isopropoxyphenyl)picolinoyl)-D-proline] | 610 | 7100 | 0.71 | 620
20 | Cc1nc([C@@H](C)c2cc(Cl)c(F)c(-c3ccc(C(=O)NC(C)(C)C(=O)O)nc3)c2OC(C)C)n2ccnc(N)c12 [Compound 70, (S)-2-(5-(3-(1-(8-amino-1-methylimidazo[1,5-a]pyrazin-3-yl)ethyl)-5-chloro-6-fluoro-2-isopropoxyphenyl)picolinamido)-2-methylpropanoic Acid] | 540 | 4400 | 0.33 | 840
21 | Cc1nc([C@@H](C)c2cc(Cl)c(F)c(-c3ccc(C(=O)N4CCC(F)(F)CC4)nc3)c2OC(C)C)n2ccnc(N)c12 [Compound 71] | 2700 | 4700 | 0.96 | 3200
